Test system: Plasmodium falciparum
Test: GSK_TCMDC: Inhibition of Plasmodium falciparum 3D7 in whole erythrocytes, using parasite LDH activity as an index of growth.
Type: functional, organism-based

SMILES | XC50 (Plasmodium falciparum, 3D7) | XC50
Cc1[nH]c2cc(F)ccc2c1C1=CCN(CCCCC2(C)C(=O)Nc3c(F)cccc32)CC1 (centres undefined) | 397 nM | –
COc1ccccc1CNc1nc(Nc2ccccc2C)nc2ccccc12 | 806 nM | –
CCOc1ccc(CNCCCCCCNCc2ccc(OCC)c3ccccc23)c2ccccc12 | 447 nM | –
COc1cccc(C2CCN(CCN3CCC(CNC(=O)c4ccc(-c5ccc(C(F)(F)F)cc5)cc4)CC3)CC2)c1 | 886 nM | –
CC(C)Cc1csc(NC(=O)C=Cc2ccco2)c1C(=O)O | 305 nM | –
Cc1nc2ccccc2c(O)c1-c1ccc(Cl)cc1 | 999 nM | –
O=S(=O)(Nc1ccc(CCN2CCCCC2CCN2CCCC2)cc1)c1ccc(-c2ccccc2)cc1 (centres undefined) | 926 nM | –
CC(CN1CCN(C)CC1)C(=O)Nc1ccc(-c2cccc(-c3nc4cc(C(F)(F)F)ccc4[nH]3)c2)cc1 (centres undefined) | 403 nM | –
CC1(C)CCCN(C(=O)Cc2ccc3c(c2)CCCC3)C1CN1CC=CC1 (centres undefined) | 720 nM | –
CCC(C)c1ccc(NC(=O)C(C)c2ccc([N+](=O)[O-])cc2)cc1 (centres undefined) | 176 nM | –
N#Cc1ccc2c(c1)CCN(CCC1CCC(NC(=O)c3ccc(-c4ccccc4)s3)CC1)CC2 (centres undefined) | 684 nM | –
COc1cc(Cc2cnc(N)nc2N)cc(OCCCCC#N)c1OC | 1040 nM | –
CC(=O)Nc1cc(C(=O)Nc2cccc(-c3cccc(-c4nc5cccc(C)c5[nH]4)c3)c2)ccc1C | 329 nM | –
Cc1cc(Cl)ccc1NC(=O)NCCCCCN1CCC(c2c[nH]c3ccccc23)CC1 | 1010 nM | –
CS(=O)(=O)Nc1ccc(OCCCCCCOc2ccc(NS(C)(=O)=O)cc2)cc1 | 493 nM | –
Cc1csc(-c2nonc2NC(=O)COc2ccccc2C(C)C)n1 | 551 nM | –
CCn1cc(CN2C(=O)C(c3ccccc3)(c3ccccc3)N=C2N)cn1 | 820 nM | –
O=C(NC1CCCC1)c1ccc(N2CCC(NCc3cc4cc(Cl)ccc4[nH]3)CC2)cc1 | 1220 nM | –
CCCC(CNCc1cccc(OC(F)(F)F)c1)CNc1cc(=O)c2ccccc2[nH]1 (centres undefined) | 556 nM | –
COc1cc(C(=O)N2CCOC(CCN3CCC(Cc4ccc(F)cc4)CC3)(c3ccc(Cl)c(Cl)c3)C2)cc(OC)c1OC (centres undefined) | 902 nM | –
CC(C)CC(=O)N1CCNC[C@@H]1C(=O)NCc1ccc(Cl)c(Cl)c1 | 950 nM | –
CC[C@H]1CN2CC[C@H]1C[C@@H]2[C@@H](O)c1ccnc2ccccc12 | 279 nM | –
Nc1nccc2ccc(Oc3ccncc3)cc12 | 481 nM | –
O=S(=O)(c1ccc(Oc2ccccc2)cc1)N(CCC(O)(C(F)(F)F)C(F)(F)F)Cc1cccc(O)c1 | 491 nM | –
COc1cccc(-n2ncc3c(N/N=C/c4ccc(CN(C)CCN(C)C)cc4)ncnc32)c1 | 893 nM | –

SMILES | XC50 (Plasmodium falciparum, 3D7) | XC50
O=S(=O)(NCCN1CCCC1)c1cccc(-c2cccc(CNCCc3cccs3)c2)c1 | 753 nM | –
OC1(C(F)(F)F)CC(c2ccccc2)=NN1c1nncc(-c2ccccc2)n1 (centres undefined) | 735 nM | –
CC(C)CNCc1ccc(-c2cccc(CN(CCCN3CCN(C)CC3)C(=O)/C=C/c3ccccc3)c2)cc1 | 872 nM | –
CC(C)(C)c1ccc(C(=O)Nc2ccc(NC(=O)c3ccc([N+](=O)[O-])o3)cc2)cc1 | 844 nM | –
O=C(/C=C/c1ccc(Cl)c(Cl)c1)NCCCCCN1CCC(c2c[nH]c3ccccc23)C(O)C1 (centres undefined) | 795 nM | 819 nM
CN(C)CCOc1ccc(/C(=C(/CCCn2ccnc2)c2ccccc2)c2ccc(O)cc2)cc1 | 772 nM | –
Clc1ccc2c(NCCCCCCCCNc3ccnc4cc(Cl)ccc34)ccnc2c1 | 482 nM | –
COc1ccc(NC(=O)Nc2ccc(-c3ccc(-c4nc5cccc(C)c5[nH]4)s3)cc2)cc1 | 175 nM | –
OC(CNCc1ccccc1OCc1ccccc1)c1cccc(I)c1 (centres undefined) | 418 nM | –
Cc1cc(C(=O)CSc2nc3ccccc3n2-c2ccccc2)c(C)n1C1CCS(=O)(=O)C1 (centres undefined) | 1000 nM | –
O=C(NCCc1ccccc1)N(Cc1cccc(-c2ccc(CNCc3ccc4c(c3)OCO4)cc2)c1)C1CCN(Cc2ccccc2)CC1 | 661 nM | –
Fc1ccc2[nH]c(-c3cccc(-c4ccc(CNCCc5ccncc5)cc4)c3)nc2c1 | 115 nM | –
CC[C@H]1CN2CC[C@H]1C[C@H]2[C@H](O)c1cc(-c2ccc(OC(F)(F)F)cc2)nc2ccc(OC)cc12 | 51.1 nM | –
CCCCCCCCCCN1C(=O)C2C(CCCCNC(C)=O)NC3(C(=O)N(Cc4ccc(C(C)(C)C)cc4)c4ccccc43)C2C1=O (centres undefined) | 993 nM | –
N#C/N=C(\NCCCCCCCCN/C(=N\C#N)NCCSCc1csc(N=C(N)N)n1)NCCCSc1csc(N=C(N)N)n1 | 844 nM | –
CCOc1ccc(NC(=O)c2cccc(CN3CCCN(Cc4cccc(O)c4)CC3)c2)cc1 | 1080 nM | –
Cc1ccc2c(c1)C1(CC(=O)N(CCc3scnc3C)C1=O)C(=O)N2Cc1ccccc1 (centres undefined) | 1250 nM | –
COc1ccc(CC2(c3ccc(F)cc3)N=C(N)N(CCCc3ccccc3)C2=O)cc1 (centres undefined) | 613 nM | –
N=C(N)Nc1nc(-c2ccc(NCc3ccc(CNc4cccc(-c5csc(NC(=N)N)n5)c4)cc3)cc2)cs1 | 310 nM | –
O=C(Nc1cccc(CN2CCN(Cc3ccc(O)cc3)CC2)c1)c1cc2ccccc2s1 | 682 nM | –
Cc1cc(=NN=CC=Cc2ccccc2)c2ccc(F)cc2[nH]1 | 590 nM | –
CCC(c1ccccc1)c1nn2c(-c3cccs3)nnc2s1 (centres undefined) | 167 nM | –
Cc1cc(C(F)(F)F)cc(-n2ncc(-c3ccc(C(=O)NCCNCc4ccccc4)cc3)c2N)n1 | 1070 nM | –
CN1CCCC(CN2CCN(Cc3ccc(-c4ccc(-c5nc6cc(F)ccc6[nH]5)s4)cc3)CC2)C1 (centres undefined) | 127 nM | –
NC(=O)c1ccccc1OCC(=O)Nc1cccc(-c2ccc(-c3nc4ccccc4[nH]3)cc2)c1 | 786 nM | –

SMILES | XC50 (Plasmodium falciparum, 3D7) | XC50
COc1ccccc1N1CCN(c2cccc3c2nc(-c2cncc(C#N)c2)n3CCNCc2ccccc2)CC1 | 706 nM | –
CCc1cc2c(=O)c(-c3nc(C)cs3)c(N)oc2c(CN2CCCCC2)c1O | 658 nM | –
Cc1nc(-c2nc(NCc3ccc4c(c3)OCO4)ncc2-c2ccsc2)sc1C | 103 nM | –
CN(C)CCCNC(=O)c1ccccc1Sc1ccccc1C#N | 1140 nM | –
CCCCCCNc1c2ccccc2nc2ccccc12 | 949 nM | –
N#Cc1ccc(CN2CCC(Oc3ccc(NC(=O)c4cccs4)cc3Cl)C2)cc1 (centres undefined) | 402 nM | –
O=c1cc(NCCC(CNCCc2ccccc2)NCc2cc(Br)cc(Br)c2)[nH]c2ccccc12 (centres undefined) | 514 nM | –
O=C(/C=C/c1ccc(Cl)c(Cl)c1)NCCCN1CCC(c2c[nH]c3ccccc23)CC1 | 966 nM | –
COc1cc(Cl)c(C)cc1N(Cc1ccccc1-c1ccccc1)S(=O)(=O)c1ccc(C(F)(F)F)cc1 | 1050 nM | –
CCc1nc(N)nc(N)c1-c1ccc(Cl)cc1 [PYRIMETHAMINE] | 59.5 nM | 31.8 nM
N#Cc1ccc(N2CCN(Cc3ccc(-c4ccc(-c5nc6cc(F)ccc6[nH]5)s4)cc3)CC2)nc1 | 854 nM | –
O=C(NCc1ccc(Cl)c(Cl)c1)c1cccc(C2CCCN(Cc3ccc4[nH]cnc4c3)C2)c1 (centres undefined) | 932 nM | –
COc1cccc2cc(C(=O)N[C@@H](CC(C)C)C(=O)N[C@H](/C=N/NC(=O)OC(C)(C)C)CC(=O)OC(C)(C)C)oc12 | 403 nM | –
CO/C(=C\C=C\c1cc2cc(Cl)c(Cl)cc2[nH]1)C(=O)NC1CC(C)N(C)C(C)C1 (centres undefined) | 902 nM | –
COc1c(C2CCN(CCCCNC(=O)c3cc(-c4ccc(Cl)cc4)sc3C)CC2)ccc2c1CCCC2 | 629 nM | –
COc1ccc(-c2ccc(NC(=O)c3ccc(Cl)cc3)cc2)cc1CN(C)CCO | 813 nM | –
CCOc1cc2ncnc(Nc3cc(Cl)c(Cl)c(Cl)c3)c2cc1OCC | 197 nM | –
Cc1cc(C2CCN(CCCCNC(=O)c3ccc(NC(=O)c4ccc(Cl)cc4)cc3)CC2)c(C)cc1OCc1ccncc1 | 501 nM | –
COc1cc2nc(N3CCC(CNC(=O)c4ccc(-c5ccc(C(=O)N(C)C)cc5)c(OCCO)c4)CC3)nc(N)c2cc1OC | 730 nM | –
COc1ccc2nccc([C@@H](O)CN3CCC(CO)(NCc4cc5ccccc5o4)CC3)c2c1 | 1370 nM | –
FC(F)(F)c1cccc(CCNc2nccc(NCc3ccccc3Cl)n2)c1 | 1170 nM | –
Cc1[nH]c(C)c(-c2ccc(-c3ccc(OC(F)(F)F)cc3)cc2)c(=O)c1Cl | 35.4 nM | –
COc1cc(CCOc2c(C)nc(N)nc2N)cc(OC)c1OC | 23.8 nM | –
Cc1cc(N[C@@H](CC(C)C)C(=O)NCc2cccs2)nc(NCCc2ccccc2)n1 | 1190 nM | –
CC(C)(C)c1ccccc1OC(=O)c1ccccc1 | 740 nM | –

SMILES | XC50 (Plasmodium falciparum, 3D7) | XC50
COCCn1c(-c2cccc(Cl)c2)nn(-c2ccc([N+](=O)[O-])cc2C#N)c1=S | 178 nM | –
Cc1ccccc1C1CCN(c2ccc(C(=O)Nc3ccccc3)cn2)CC1 | 327 nM | –
O=C(NCCCCN1CCC(c2ccc3ccccc3c2)CC1)c1ccc(NC(=O)c2ccc(Cl)cc2)cc1 | 226 nM | –
COc1cc2nc(N3CCN(c4cc(C)ccc4C)CC3)nc(N)c2cc1OC | 851 nM | –
CCc1ccccc1OCCCON1C(=N)N=C(N)NC1(C)C | 3.2 nM | –
CC1CCC2(CC1)NC(N)=NC(=N)N2OCCCCCCCCO (centres undefined) | 147 nM | –
COc1ccc(C(=O)CCC(=O)N(Cc2ccc(-c3ccc(CNCCc4ccc(S(C)(=O)=O)cc4)cn3)cc2)Cc2ccc3c(c2)OCO3)cc1F | 943 nM | –
CCOc1ccc(N2C(N)=NC(N)=NC2(C)C)cc1 | 259 nM | –
O=C(Nc1ccc(-c2nc3ccccc3[nH]2)cc1)c1cnc(Cl)c(Cl)c1 | 728 nM | –
CN(C)C(CNc1ncnc2cc(Cl)ccc12)Cc1ccccc1 (centres undefined) | 872 nM | –
CCN1CCC(N(Cc2ccc(-c3ccc(C(F)(F)F)cc3)cc2)C(=O)Cn2c(CCc3cccc(F)c3F)cc(=O)c3ccccc32)CC1 | 832 nM | –
CN(C)CCNCc1nc(-c2ccc3c(Nc4ccc(Cl)cc4F)ccnc3c2)cs1 | 809 nM | –
CCc1ccc(Cc2cnc3nc(N)nc(N)c3c2C)cc1CC | 285 nM | –
c1ccc2c(c1)CN(CC1CCOCC1)CC1(CCN(Cc3c[nH]c4cnccc34)CC1)O2 | 1550 nM | –
O=C(Cc1cccc(O)c1)NCC(Cc1ccc(O)cc1)c1ccccc1 (centres undefined) | 643 nM | –
Cc1cccc2nc(-c3ccc(-c4ccc(NC(=O)CN5CCN(C)CC5)cc4)cc3)[nH]c12 | 785 nM | –
COc1ccc(C)c(Nc2ccnc(Nc3ccc(-c4cnc[nH]4)cc3)n2)c1 | 1370 nM | –
CCCNC(=O)Nc1cc2cc(-c3ccc(CN4CCCC4)cc3)ccc2n2c(C)nnc12 | 1500 nM | –
c1ccc2[nH]c(-c3ccc(-c4ccc(CN5CCN(CCN6CCOCC6)CC5)cc4)cc3)nc2c1 | 158 nM | –
CC(CNC(=O)C(c1cc2ccccc2o1)N1CCN(C(c2ccccc2)c2ccccc2)CC1)c1ccccc1 (centres undefined) | 626 nM | –
Cc1cc(F)ccc1-c1nc(NCCCNCCc2ccccc2)nc2c1ccc(=O)n2-c1c(F)cccc1F | 186 nM | –
CCc1ccc(NC(=O)c2ccc(CN3CCCN(Cc4cccc(O)c4)CC3)cc2)cc1 | 673 nM | –

From ChEMBL document CHEMBL1157539, “Thousands of chemical starting points for antimalarial lead identification” (Nature, 2010)
